What was measured:
FVB mice [1] = experiment: Auditory brainstem response thresholds after transtympanic injection in adult mice; format: in vivo, mouse; conditions: adult (>P21) FVB mice, 10 μg transtympanic (TT) injection, 7 days after
Protocol: (§1) To further evaluate the use of an inhibitor of EGFR signaling in HC regeneration, the toxicity of AG1478 in neonatal and adult mice was assessed.

FVB mice [2] = experiment: Toxicity (median lethal dose) in neonatal mice; format: in vivo, mouse; conditions: postnatal day 1 (P1) FVB mice, intraperitoneal (IP) injection; estimated
Protocol: as §1

[3] = test system: neonatal mouse cochlear explants; experiment: Inhibitor alone: proliferation and differentiation of endogenous SCs and HCs in neonatal cochlear explants; format: cell-based; conditions: inhibitor by itself, after 7 days
From the text: Atoh1, a transcription factor, can convert non-sensory supporting cells (SCs) to hair cells (HCs) in neonatal and juvenile mammalian cochleae (Izumikawa, et al. (2005) Nature Med. 11:271-6; Kelly, et al. (2012) J. Neurosci. 32:6699-710; Liu, et al. (2012) J. Neurosci. 32:6600-10). Ectopic expression of Atoh1 has been approved for clinical trials as a gene therapy. However, Atoh1-induced HC conversion is inefficient (<17%), incomplete (lacking mature HC markers), and age-dependent (no response in adult cochlea) (Izumikawa, et al. (2008) Hearing Res. 240:52-6; Liu, et al. (2012) J. Neurosci. 32:6600-10). Using RNA-seq analysis to compare the transcriptome of SCs, endogenous outer HCs (OHCS), and Atoh1-induced HCs (cHCs) in adult mouse cochleae, it was observed that the epidermal growth factor receptor (EGFR) signaling is enriched in SCs and cHCs using gene set enrichment analysis (GSEA). To validate the role of EGFR pathway ex vivo, neonatal mouse cochlear explants were treated with a potent EGFR inhibitor (AG1478). […] In addition, inhibitors targeting proteins downstream of EGFR signaling were tested including WP1066 (STAT3 inhibitor), LY 294002 (PI3K inhibitor), U0126 (MEK inhibitor), and U73122 (PLC inhibitor) at various doses above their respective EC50 values. […]

[4] = test system: neonatal mouse cochlear explants; experiment: Atoh1-induced hair cell conversion in Atoh1-transfected neonatal mouse cochlear explants; format: cell-based
Protocol: Representative images show the immunostaining of cochlear explants transfected with Atoh1-IRES-GFP and treated with vehicle (FIGS. 1A and 1C) or 100 nM AG1478 (FIGS. 1B and 1D). Expression of hair cell marker Myo6 (↑) and Atoh1-transfected cells (GFP, ? ) are shown.
Atoh1 is transfected (O/E) in all conditions.

HEI-OC1 cells [5] = experiment: Protection against cisplatin-induced Caspase-3/7 activity / cell death in HEI-OC1 cells; format: cell-based, mouse; conditions: for protection against cisplatin-induced cell death: HEI-OC1, screen of 75 kinase inhibitors; for IC50: Mus musculus, HEI-OC1 cells
Protocol: (§2) A screen of a library composed of 75 kinase inhibitors was conducted to identify inhibitors that protect against cisplatin-induced hair cell loss.

mouse cochlear explants [6] = conditions: for protection against cisplatin-induced hair cell loss: cochlear explants, screen of 75 kinase inhibitors
Protocol: as §2

HEI-OC1 cells [7] = conditions: CELLTITER-GLO
Protocol: as §2

mouse cochlear explants [8] = experiment: tissue or blood; conditions: read-out: IC50, protection against cisplatin-induced hair cell loss
Protocol: as §2

`COc1cc2ncnc(Nc3cccc(Cl)c3)c2cc1OC` [AG1478, AG 1478] was tested, and the “changes in auditory brainstem response (ABR) thresholds” value (FVB mice [1]) was “no significant changes”, the “median lethal dose (LD50)” value (FVB mice [2]) was 30 mg/kg and the “impact on the proliferation and differentiation of endogenous SCs and HCs” value [3] was “no impact”. For the same compound, the “Atoh1-induced hair cell conversion (immunostaining Myo6/GFP)” value ([4]; 100 nM AG1478 vs vehicle, Atoh1-IRES-GFP transfected explants) was “increased” and the “Atoh1-induced HC conversion from explant SCs” value ([4]; AG1478 combined with Atoh1, from 24.7% without inhibitor, FIGS. 1A-1D) was 80.6%.
`CC1(COc2ccc3c(c2)ncn3-c2ccc3cccc(N4CCC(N)CC4)c3n2)COC1` [CRENOLANIB, Crenolanib] was tested, and the “protection against cisplatin-induced cell death” value (HEI-OC1 cells [5]) was “potently protected” and the “protection against cisplatin-induced hair cell loss” value (mouse cochlear explants [6]) was “potently protected”.
For `CC(C)(C)c1nc(-c2cccc(NS(=O)(=O)c3c(F)cccc3F)c2F)c(-c2ccnc(N)n2)s1` [GSK2118436A, dabrafenib], the “protection against cisplatin-induced cell death” value (HEI-OC1 cells [5]) was “potently protected” and the “protection against cisplatin-induced hair cell loss” value (mouse cochlear explants [6]) was “potently protected”.
With `FC(F)(F)c1ccc(/C=C/c2nc(COc3ccc(CCCCn4ccnn4)cc3)co2)cc1` [MUBRITINIB, Mubritinib] the “protection against cisplatin-induced cell death” value (HEI-OC1 cells [5]) was “potently protected”, the IC50 (HEI-OC1 cells [5]) was 4 nM and the LD50 (HEI-OC1 cells [7]) was greater than 55 µM. For the same compound, the IC50 (mouse cochlear explants [8]) was 2.5 nM, the “protection against cisplatin-induced hair cell loss” value (mouse cochlear explants [6]) was “potently protected” and the LD50 (mouse cochlear explants [6]; mouse cochlear explants) was greater than 500 nM. For the same compound, the “Therapeutic Index” value (mouse cochlear explants [6]; mouse cochlear explants, LD50/IC50) was greater than 200.
In the case of `CCOc1cc2ncc(C#N)c(Nc3ccc(F)c(Cl)c3)c2cc1NC(=O)/C=C/CN(C)C` [PELITINIB, Pelitinib], the IC50 (HEI-OC1 cells [5]; cisplatin-Glo 3/7) is reported as 600 nM and the “protection of outer hair cells against cisplatin-induced hair cell loss” value (mouse cochlear explants [6]; 1 hour pre-incubation, N=3) is reported as 49%.
With `O=C(Nc1cccc(Cl)c1)Nc1ncc(CCNc2ncnc3ccsc23)s1` [SNS314] the “protection against cisplatin-induced cell death” value (HEI-OC1 cells [5]) was “potently protected” and the “protection against cisplatin-induced hair cell loss” value (mouse cochlear explants [6]) was “potently protected”.
